“Also recorded” adds a separate entry of the source.
Assays:
[1] = test system: MYCN transcript; assay: RT-qPCR of MYCN transcript in SK-N-Be2 cells; type: cell-based, human; conditions: 15 μM, sampled 0, 3, 6, 9, 24 hrs
Description: (§1) Reverse transcription quantitative polymerase chain reaction (RT-qPCR) was used to quantify transcript abundance of genes of interest. Total RNA was isolated from cells using the Qiaquick RNeasy isolation kit following manufacturer's instruction (QIAGEN). RNA quality and abundance was measured using a nanodrop spectrophotometer. A total of 2 μg RNA was used as a template for reverse transcription reactions. cDNA synthesis was performed using TaqMan reverse transcriptase following the manufacturer's instructions, using both oligod(T) and random hexamers as primers for RT reactions. RNAse treatment of cDNA removed any residual RNA in cDNA samples. cDNA samples were diluted 10-fold into nuclease-free dH2O, and used as the template for quantitative PCR reactions were performed in a Viia7 […] thermocycler using SYBR green and gene-specific primers (Table 1). qPCR reactions were performed using the Viia7 Real-Time PCR system (Applied Biosystems), and relative transcript abundance evaluated using the deltaCT method, using the GAPDH housekeeping gene as normalization control.

[2] = test system: MycN^AMP regulatory module (Master Regulators, TCM); assay: PLATE-Seq with VIPER analysis: reversion of the MycN^AMP master regulator module; type: cell-based, human; conditions: SK-N-Be2 cells, IC20, 24 hrs
Excerpt: Reads were mapped against the human reference genome version Grch38 using the STAR aligner, and used the variance stabilizing transformation from the DESeq2 package for R to normalize each plate. Next, we corrected for batch effect due to having compounds replicates on separate plates. We used the function combat from the sva package for R to compute the batch-corrected normalized gene expression, and fitted a linear model for each compound against the set of DMSO controls on each plate (6 wells per plate per DMSO-treated cells). We used the limma package for R to fit the linear model and to compute p-values and moderated t-statistics for each gene. For each compound, we used a vector of these statistics to generate a gene expression profile of z-scores representing the compound effect as differential between post- and pre-treatment.
Each compound gene expression profile was analyzed using the VIPER algorithm (Alvarez et al. 2016) with TARGET and NRC NBL interactomes, reverse-engineered as described in (Rajbhandari et al. 2018), resulting in two protein activity profiles for each compound that were integrated using Stouffer's z-score method.

[3] = test system: pAKT (Ser473); assay: pAKT (Ser473) western blot in SK-N-Be2 cells; type: cell-based, human; conditions: growth factor induced
Excerpt: (§2) Membranes were blocked using Odyssey Blocking Buffer (LI-COR) for 1 hr at room temperature. […] Primary antibodies used in these studies include: MycN (CST; 1:500 dilution), Actin (SCBT; 1:2000 dil.), cMYC (CST; 1:500 dil.), pAKT (S473; CST; 1:500 dil.), AKT (CST; 1:2000), pP70 (T389; CST; 1:1000) P70 (CST; 1:1000).
We first tested whether isopomiferin disrupted […] signaling in NBL by treating SK-N-Be2 cells to isopomiferin and blotting for pAKT abundance. Treatment with […] (EGF) induces pAKT1 through mTOR signaling. We tested whether isopomiferin had the ability to disrupt mTOR signaling by pre-treating cells with isopomiferin for 2 hrs, following which cells were treated with 10 ng/ml EGF for 30 minutes to induce pAKT1. […] Total AKT abundance was used as a loading control to confirm that isopomiferin was simply not suppressing expression of AKT abundance.

[4] = test system: pS6K; assay: S6K phosphorylation western blot in SK-N-Be2 cells; type: cell-based, human; conditions: 10 μM and 20 μM, 24 hours
Excerpt: as §2
(§3) We then tested whether mTORC2 complex was disrupted by isopomiferin treatment. […] to enable translation. We tested whether phosphorylation of S6K was inhibited by isopomiferin by treating SK-N-Be2 cells to 10 μM and 20 μM isopomiferin for 24 hours and blotting for pS6K, using total S6K protein as a loading control. […] We then tested whether this was consistent across cell lines by performing a similar experiment in an NSCLC cell line, A549.

[5] = test system: pS6K; assay: S6K phosphorylation western blot in A549 cells; type: cell-based; conditions: 24 hrs
Excerpt: as §2, §3

[6] = test system: cMyc; assay: Western blot of cMyc in A549 cells; type: cell-based; conditions: A549 cells, 5, 10, or 15 μM, 24 hrs
Excerpt: as §2
There are some shared upstream regulatory pathways that govern both MycN and cMyc expression, including mTOR signaling cascade (Guertin and Sabatini 2007; Hay and Sonenberg 2004). We hypothesized that isopomiferin could disrupt the expression of cMyc as well. We identified a cMyc-expressing lung cancer line, A549, and treated cells with 5, 10, or 15 μM isopomiferin for 24 hrs (FIG. 3D).

[7] = test system: CCL5 transcript; assay: qPCR of CCL5 transcript in A549 cells; type: cell-based; conditions: 48 hr
Description: as §1
In lung cancer, cMyc overexpression suppresses CCL5, an antigen that enables the immune system to detect cancer cells (Topper et al. 2017). By suppressing CCL5, cMyc enables tumors to evade immune surveillance (Topper et al. 2017). […]

[8] = test system: MYC protein; assay: Western blot of MYC protein in SCLC lines NCI-H69 and NCI-H209; type: cell-based; conditions: NCI-H69 and NCI-H209, 24 h
Excerpt: as §2

[9] = Stability in mouse plasma; type: in vitro ADME; conditions: 4 h incubation, 20 μM
Description: Mouse plasma was diluted with 100 mM PBS buffer at 7.4 pH and at a 1:1 ratio, and warmed to 37° C. Test compounds were added to the plasma solution at 20 μM and incubated for the indicated time point. Reactions was quenched by aliquoting 15 μL of solution into 60 μL ice-cold acetonitrile containing an internal standard. Compounds were quantified by LC-MS, as detailed above.

[10] = test system: PARP and caspase3 cleavage; assay: Western blot of apoptosis hallmarks (cleaved PARP, cleaved caspase 3); type: cell-based, human; conditions: SK-N-Be2 cells, 48 hrs
Excerpt: as §2

[11] = test system: PLK1, LIN28B, and BMI1 transcripts; assay: qPCR of downstream targets of MycN (PLK1, LIN28B, BMI1) in SK-N-Be2 cells; type: cell-based, human; conditions: 10 μM, up to 24 h
Description: as §1

[12] = test system: mutant isoform of CK2a1; assay: Cell viability after expression of mutant CK2a1 isoform; conditions: versus GFP-expressing plasmid

Compound | MYCN transcript abundance (RT-qPCR) [1] | reversion of the MR regulatory module / TCM (VIPER of PLATE-Seq) [2] | pAKT accumulation / AKT (Ser473) phosphoactivation [3] | pAKT accumulation / AKT (Ser473) phosphoactivation ([3]; listed as Isopomiferin) | phosphorylation of S6K (P70^S6K) [4] | phosphorylation of S6K (P70^S6K) ([4]; listed as Isopomiferin) | pS6K [5] | cMyc protein abundance [6] | increase of CCL5 transcript [7] [fold] | MYC protein abundance in SCLC lines [8] | compound remaining in mouse plasma [9] | induction of apoptosis (PARP and caspase3 cleavage) [10] | transcript accumulation of PLK1, LIN28B, and BMI1 [11] | resistance conferred by mutant CK2 isoform [12]
CC1(C)C=Cc2c(c3c(c4c(=O)c(-c5ccc(O)c(O)c5)coc24)OC(C)(C)CC3)O1 [isopomiferin] | transcript abundance decreased in a time-dependent manner | the top compound of the 90 tested; also recorded: had the strongest effect on the TCM | blocked pAKT accumulation in presence of EGF treatment | inhibited phosphorylation of P70^S6K, as well as the IGF1-induced phosphoactivation of AKT (Ser473) | completely inhibited phosphorylation of S6K protein | inhibited phosphorylation of P70^S6K | suppressed pS6K in A549 cells | suppressed cMyc protein abundance in A549 in a dose dependent manner | 15 | suppressed MYC protein in both SCLC lines |  |  |  | 
CC(C)=CCc1c2c(c3occ(-c4ccc(O)c(O)c4)c(=O)c3c1O)C=CC(C)(C)O2 [pomiferin] |  |  |  |  |  |  |  |  |  |  | approximately 75% | more potent inducer of apoptosis than CX-4945 | inhibited the transcript accumulation of three downstream targets of MycN | modest resistance

From patent publication US20220119399A1, “COMPOUNDS AND COMPOSITIONS THAT CAUSE MYCN AND/OR CMYC DEGRADATION AND METHODS OF USE THEREOF” (THE TRUSTEES OF COLUMBIA UNIVERSITY IN THE CITY OF NEW YORK, priority 2018, published 2022)
